From article PMC9441601, “Aspergillus oryzae accelerates the conversion of ergosterol to ergosterol peroxide by efficiently utilizing cholesterol” (Frontiers in Genetics, 2022)
Read-outs that look alike come from different tables or passages of the source.

Molecular target: T1, Osh3 (Aspergillus oryzae, UniProt Q2U562)
T1 construct: gene AO090020000057
Assay: microscale thermophoresis (MST), purified fluorescently labelled Osh3
Assay type: binding

T1 sequence (Q2U562 entry or part of it): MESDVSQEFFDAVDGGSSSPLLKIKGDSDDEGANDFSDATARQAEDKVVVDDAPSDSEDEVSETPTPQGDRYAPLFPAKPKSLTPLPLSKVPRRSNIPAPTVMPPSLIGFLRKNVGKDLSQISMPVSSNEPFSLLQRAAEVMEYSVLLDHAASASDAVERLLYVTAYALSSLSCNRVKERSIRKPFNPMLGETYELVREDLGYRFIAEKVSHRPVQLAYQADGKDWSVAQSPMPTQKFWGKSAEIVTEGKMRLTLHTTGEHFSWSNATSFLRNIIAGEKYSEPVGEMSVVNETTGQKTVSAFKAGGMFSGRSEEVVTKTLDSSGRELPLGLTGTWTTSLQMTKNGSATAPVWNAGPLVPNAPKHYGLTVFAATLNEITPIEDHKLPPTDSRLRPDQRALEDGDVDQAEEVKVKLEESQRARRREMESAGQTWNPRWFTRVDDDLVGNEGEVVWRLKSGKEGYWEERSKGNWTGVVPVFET

SMILES	Kd (read-out: Kd) [nM]	Kd [nM]
CC(C)CCC[C@@H](C)[C@H]1CC[C@H]2[C@@H]3C(=O)C=C4C[C@@H](O)CC[C@]4(C)[C@H]3CC[C@]12C [7-ketocholesterol]	1460	
C[C@H](CCCC(C)(C)O)[C@H]1CC[C@H]2[C@@H]3CC=C4C[C@@H](O)CC[C@]4(C)[C@H]3CC[C@]12C [25-hydroxycholesterol]	9.1 ± 2	
CC(C)[C@H](C)CC[C@@H](C)[C@H]1CC[C@H]2[C@@H]3CC=C4C[C@@H](O)CC[C@]4(C)[C@H]3CC[C@]12C [campesterol]		339 ± 78.1
CC(C)[C@@H](C)/C=C/[C@@H](C)[C@H]1CC[C@H]2C3=C[C@@H](O)[C@@]4(O)C[C@@H](O)CC[C@]4(C)[C@H]3CC[C@]12C [cerevisterol]	3.4 ± 1.3	
CC(C)CCC[C@@H](C)[C@H]1CC[C@H]2[C@@H]3CC=C4C[C@@H](O)CC[C@]4(C)[C@H]3CC[C@]12C [cholesterol]	333 ± 45.3	
CC(C)[C@@H](C)/C=C/[C@@H](C)[C@H]1CC[C@@H]2[C@]1(C)CC[C@H]1[C@]23C=C[C@]2(C[C@@H](O)CC[C@]12C)OO3 [ergosterol peroxide]	8.1 ± 2.1	
CC(C)[C@@H](C)/C=C/[C@@H](C)[C@H]1CC[C@H]2C3=CC=C4C[C@@H](O)CC[C@]4(C)[C@H]3CC[C@]12C [ergosterol]	122 ± 24.3	
CC[C@H](/C=C/[C@@H](C)[C@H]1CC[C@H]2[C@@H]3CC=C4C[C@@H](O)CC[C@]4(C)[C@H]3CC[C@]12C)C(C)C [stigmasterol]		1 ± 0.8
CC[C@H](CC[C@@H](C)[C@H]1CC[C@H]2[C@@H]3CC=C4C[C@@H](O)CC[C@]4(C)[C@H]3CC[C@]12C)C(C)C [β-sitosterol]		65.8 ± 24.6
